Assay results from patent US20230416248A1, “COMPOUNDS AND USES THEREOF” (Foghorn Therapeutics Inc., priority 2020, published 2023).
pIC50: −log10 of the molar value.

Tests used:
BRM = target: T1, BRM (Homo sapiens, UniProt P51531); assay: ATPase catalytic activity of BRM, ADP-Glo in vitro biochemical assay; details: for pIC50: ADP-Glo ATPase assay, 30 nM BRM, 400 μM ATP; for Ratio*: ratio BRG1 IC50 / BRM IC50
T1 construct: made in house; host or cells: High Five insect cells
In short: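 ADP-Glo luminescence, after depletion of leftover ATP and conversion of ADP, reported the activity. The 1 h room-temperature reaction held 400 μM ATP, 20 nM salmon sperm DNA and 30 nM BRM in 20 mM Tris pH 8, 20 mM MgCl2, 50 mM NaCl, 0.1% Tween-20, 1 mM DTT.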

BRG-1 = target: T2, BRG-1 (Homo sapiens, UniProt P51532); assay: ATPase catalytic activity of BRG-1, ADP-Glo in vitro biochemical assay; details: ADP-Glo ATPase assay, 30 nM BRG-1, 400 μM ATP; read-out: BRG1 IC50
T2 construct: made in house; host or cells: High Five insect cells
In short: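 ADP produced by BRG-1 was quantified by luciferase luminescence. A 60 min room-temperature ADP-to-ATP conversion followed a 40 min ATP-depletion step.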

T2 sequence (P51532 whole entry): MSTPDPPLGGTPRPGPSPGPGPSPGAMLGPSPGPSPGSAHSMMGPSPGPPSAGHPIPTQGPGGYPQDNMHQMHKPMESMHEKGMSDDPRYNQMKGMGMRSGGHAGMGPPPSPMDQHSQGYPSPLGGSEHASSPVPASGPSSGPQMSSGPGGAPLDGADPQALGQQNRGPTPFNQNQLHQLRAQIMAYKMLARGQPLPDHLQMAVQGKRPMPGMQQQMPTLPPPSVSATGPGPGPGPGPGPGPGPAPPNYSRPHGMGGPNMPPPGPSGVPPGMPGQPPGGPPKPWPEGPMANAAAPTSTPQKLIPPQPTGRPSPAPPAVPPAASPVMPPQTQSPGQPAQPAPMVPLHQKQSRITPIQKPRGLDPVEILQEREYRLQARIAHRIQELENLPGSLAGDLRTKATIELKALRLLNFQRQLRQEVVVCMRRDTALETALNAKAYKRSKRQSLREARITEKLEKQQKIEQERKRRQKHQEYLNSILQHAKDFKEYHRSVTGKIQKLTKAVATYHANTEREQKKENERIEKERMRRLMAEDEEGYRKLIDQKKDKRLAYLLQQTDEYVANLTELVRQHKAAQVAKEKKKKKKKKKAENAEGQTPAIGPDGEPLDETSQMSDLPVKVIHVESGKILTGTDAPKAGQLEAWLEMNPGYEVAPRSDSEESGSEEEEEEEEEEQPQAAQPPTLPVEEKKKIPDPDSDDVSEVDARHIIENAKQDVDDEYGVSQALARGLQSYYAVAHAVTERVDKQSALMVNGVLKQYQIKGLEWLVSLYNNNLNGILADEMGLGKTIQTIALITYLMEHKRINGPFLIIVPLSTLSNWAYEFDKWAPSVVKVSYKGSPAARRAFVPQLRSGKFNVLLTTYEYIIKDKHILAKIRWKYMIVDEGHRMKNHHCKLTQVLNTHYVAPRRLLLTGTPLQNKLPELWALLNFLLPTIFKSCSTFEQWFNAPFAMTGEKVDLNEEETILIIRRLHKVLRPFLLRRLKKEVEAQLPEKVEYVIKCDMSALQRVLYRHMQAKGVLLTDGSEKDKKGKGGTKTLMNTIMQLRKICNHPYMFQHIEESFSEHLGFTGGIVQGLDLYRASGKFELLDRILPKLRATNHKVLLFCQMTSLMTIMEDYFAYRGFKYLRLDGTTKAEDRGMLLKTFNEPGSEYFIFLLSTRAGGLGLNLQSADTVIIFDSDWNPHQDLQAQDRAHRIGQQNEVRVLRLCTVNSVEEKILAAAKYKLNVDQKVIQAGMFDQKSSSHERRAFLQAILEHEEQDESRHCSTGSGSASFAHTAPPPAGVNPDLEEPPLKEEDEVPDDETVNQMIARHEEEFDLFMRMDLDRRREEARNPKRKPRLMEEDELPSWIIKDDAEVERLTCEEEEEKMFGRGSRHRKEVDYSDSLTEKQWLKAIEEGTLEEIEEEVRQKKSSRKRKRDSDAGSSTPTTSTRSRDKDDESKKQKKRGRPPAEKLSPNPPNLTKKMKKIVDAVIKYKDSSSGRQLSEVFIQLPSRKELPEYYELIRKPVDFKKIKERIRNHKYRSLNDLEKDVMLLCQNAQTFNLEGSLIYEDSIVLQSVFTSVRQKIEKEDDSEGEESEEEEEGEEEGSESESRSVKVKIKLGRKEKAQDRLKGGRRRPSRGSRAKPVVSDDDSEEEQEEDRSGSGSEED
T1 sequence (P51531 whole entry): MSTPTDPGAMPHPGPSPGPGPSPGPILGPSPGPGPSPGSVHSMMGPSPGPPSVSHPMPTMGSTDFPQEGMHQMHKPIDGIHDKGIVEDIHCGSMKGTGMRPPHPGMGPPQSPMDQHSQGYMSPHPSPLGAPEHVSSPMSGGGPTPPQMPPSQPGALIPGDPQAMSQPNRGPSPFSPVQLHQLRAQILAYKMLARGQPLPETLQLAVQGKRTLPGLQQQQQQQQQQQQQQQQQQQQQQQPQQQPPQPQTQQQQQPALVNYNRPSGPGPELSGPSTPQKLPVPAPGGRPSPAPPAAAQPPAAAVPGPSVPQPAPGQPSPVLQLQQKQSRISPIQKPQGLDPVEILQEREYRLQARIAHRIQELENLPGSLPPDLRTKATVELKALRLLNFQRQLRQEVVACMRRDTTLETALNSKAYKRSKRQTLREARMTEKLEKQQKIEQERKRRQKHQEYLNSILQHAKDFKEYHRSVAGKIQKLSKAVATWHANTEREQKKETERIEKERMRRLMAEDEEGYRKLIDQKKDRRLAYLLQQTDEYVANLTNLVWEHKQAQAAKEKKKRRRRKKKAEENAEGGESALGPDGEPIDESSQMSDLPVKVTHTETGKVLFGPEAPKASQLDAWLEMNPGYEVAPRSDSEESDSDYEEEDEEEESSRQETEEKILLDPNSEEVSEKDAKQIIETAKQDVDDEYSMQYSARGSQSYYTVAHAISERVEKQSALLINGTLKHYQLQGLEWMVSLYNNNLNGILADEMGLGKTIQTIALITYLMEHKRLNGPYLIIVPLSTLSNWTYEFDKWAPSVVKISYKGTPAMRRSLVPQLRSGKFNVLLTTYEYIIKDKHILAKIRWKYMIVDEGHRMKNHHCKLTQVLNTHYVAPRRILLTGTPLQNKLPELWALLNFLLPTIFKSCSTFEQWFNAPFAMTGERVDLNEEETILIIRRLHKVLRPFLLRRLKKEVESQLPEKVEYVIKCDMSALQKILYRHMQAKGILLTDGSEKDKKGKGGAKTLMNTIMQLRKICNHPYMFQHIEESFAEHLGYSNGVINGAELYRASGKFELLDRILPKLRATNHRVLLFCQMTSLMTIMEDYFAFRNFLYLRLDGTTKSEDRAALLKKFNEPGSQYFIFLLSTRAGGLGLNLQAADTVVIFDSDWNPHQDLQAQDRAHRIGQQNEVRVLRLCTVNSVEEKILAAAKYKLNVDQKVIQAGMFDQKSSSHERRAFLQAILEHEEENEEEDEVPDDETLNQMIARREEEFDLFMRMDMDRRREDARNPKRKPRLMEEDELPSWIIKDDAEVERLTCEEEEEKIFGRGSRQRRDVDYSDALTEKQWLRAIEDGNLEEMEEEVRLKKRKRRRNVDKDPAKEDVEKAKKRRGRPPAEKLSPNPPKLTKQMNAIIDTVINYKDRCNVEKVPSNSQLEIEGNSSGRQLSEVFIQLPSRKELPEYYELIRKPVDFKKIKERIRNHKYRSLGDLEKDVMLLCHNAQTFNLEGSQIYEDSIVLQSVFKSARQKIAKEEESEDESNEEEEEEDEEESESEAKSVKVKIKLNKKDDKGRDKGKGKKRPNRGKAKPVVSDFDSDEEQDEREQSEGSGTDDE

For `O=C(NCc1cc2nc(N3CCOc4cc(F)c(C5CC5)nc43)ccc2cn1)c1ccc2c(c1)S(=O)(=O)CCOC2` [Compound 751], the pIC50 (BRM) was 7.44, the “Ratio*” value (BRM) was 63.48 and the pIC50 (BRG-1) was 5.64.

`CC1(C)CCN(c2ccc3cnc(CNC(=O)c4ccc5c(c4)S(=O)(=O)CCOC5)cc3n2)c2ncccc21` [Compound 752] was tested, and the pIC50 (BRM) was 5.98, the “Ratio*” value (BRM) was 3.68 and the pIC50 (BRG-1) was 5.42.

For `O=C(NCc1cc2nc(N3CCOc4cc(C5CCC5)cnc43)ccc2cn1)c1ccc2c(c1)S(=O)(=O)CCOC2` [Compound 753], the pIC50 (BRM) was 7.85, the “Ratio*” value (BRM) was 14.28 and the pIC50 (BRG-1) was 6.69.

`O=C(NCc1cc2nc(N3CCOc4cc(N5CCCC5)cnc43)ccc2cn1)c1ccc2c(c1)S(=O)(=O)CCOC2` [Compound 754] was tested, and the pIC50 (BRM) was 7.72, the “Ratio*” value (BRM) was 10.04 and the pIC50 (BRG-1) was 6.72.

`O=C(NCc1cc2nc(N3CCOc4cnc(C5CC5)cc43)ccc2cn1)c1ccc2c(c1)S(=O)(=O)CCOC2` [Compound 755] was tested, and the pIC50 (BRM) was 8.15, the “Ratio*” value (BRM) was 17.47 and the pIC50 (BRG-1) was 6.91.

In the case of `O=C(NCc1cc2nc(N3CCN(C4CC4)c4cc(C5CC5)cnc43)ccc2cn1)c1ccc2c(c1)S(=O)(=O)CCOC2` [Compound 756], the pIC50 (BRM) was 7.82, the “Ratio*” value (BRM) was 11.62 and the pIC50 (BRG-1) was 6.75.

With `O=C(NCc1cc2nc(N3CCOc4cc(N5CCC(F)(F)C5)cnc43)ccc2cn1)c1ccc2c(c1)S(=O)(=O)CCOC2` [Compound 758] the pIC50 (BRM) was 7.45, the “Ratio*” value (BRM) was 14.23 and the pIC50 (BRG-1) was 6.30.

In the case of `O=C(NCc1cc2nc(N3CCCc4ccc(OCC5CCOC5)cc43)ccc2cn1)c1ccc2c(c1)S(=O)(=O)CCOC2` (stereo not drawn) [Compound 759], the pIC50 (BRM) was 8.28, the “Ratio*” value (BRM) was 9.97 and the pIC50 (BRG-1) was 7.27.

With `O=C(NCc1cc2nc(N3CCOc4ccc(C5CC5)c(F)c43)ccc2cn1)c1ccc2c(c1)S(=O)(=O)CCOC2` [Compound 760] the pIC50 (BRM) was 8.06, the “Ratio*” value (BRM) was 7.05 and the pIC50 (BRG-1) was 7.21.

For `COc1cncc2c1CCCN2c1ccc2cnc(CNC(=O)c3ccc4c(c3)S(=O)(=O)CCOC4)cc2n1` [Compound 761], the pIC50 (BRM) was 8.06, the “Ratio*” value (BRM) was 7.77 and the pIC50 (BRG-1) was 7.17.

In the case of `CN(C)c1cnc2c(c1)OCCN2c1ccc2cnc(CNC(=O)c3ccc4c(c3)S(=O)(=O)CCOC4)cc2n1` [Compound 763], the pIC50 (BRM) was 8.28, the “Ratio*” value (BRM) was 8.52 and the pIC50 (BRG-1) was 7.34.

With `Cc1cc(F)c2c(c1)OCCN2c1ccc2cnc(CNC(=O)c3ccc4c(c3)S(=O)(=O)CCOC4)cc2n1` [Compound 764] the pIC50 (BRM) was 8.02, the “Ratio*” value (BRM) was 16.66 and the pIC50 (BRG-1) was 6.80.

`O=C(NCc1cc2nc(N3CCOc4cc(C5CC5)cc(F)c43)ccc2cn1)c1ccc2c(c1)S(=O)(=O)CCOC2` [Compound 765] was tested, and the pIC50 (BRM) was 7.63, the “Ratio*” value (BRM) was 12.08 and the pIC50 (BRG-1) was 6.55.

For `O=C(NCc1cc2nc(N3CCOc4ccc(C56CC(C5)C6)nc43)ccc2cn1)c1ccc2c(c1)S(=O)(=O)CCOC2` [Compound 766], the pIC50 (BRM) was 7.77, the “Ratio*” value (BRM) was 10.47 and the pIC50 (BRG-1) was 6.75.

In the case of `O=C(NCc1cc2nc(N3CCC(F)(F)c4cccnc43)ccc2cn1)c1ccc2c(c1)S(=O)(=O)CCOC2` [Compound 767], the pIC50 (BRM) was 7.76, the “Ratio*” value (BRM) was 11.17 and the pIC50 (BRG-1) was 6.71.

`COc1cc2c(cn1)CCCN2c1ccc2cnc(CNC(=O)c3ccc4c(c3)S(=O)(=O)CCOC4)cc2n1` [Compound 768] was tested, and the pIC50 (BRM) was 7.97, the “Ratio*” value (BRM) was 11.76 and the pIC50 (BRG-1) was 6.90.

For `C[C@@H]1CN(c2cccc(-c3ccc4cnc(CNC(=O)c5cnc6c(c5)S(=O)(=O)[C@@H](C)COC6)cc4c3)n2)C[C@H](C)O1` [Compound 769], the pIC50 (BRM) was 8.08, the “Ratio*” value (BRM) was 3.16 and the pIC50 (BRG-1) was 7.58.

In the case of `Cc1nc2c(cc1F)OCCN2c1ccc2cnc(CNC(=O)c3ccc4c(c3)S(=O)(=O)CCOC4)cc2n1` [Compound 770], the pIC50 (BRM) was 7.79, the “Ratio*” value (BRM) was 20.67 and the pIC50 (BRG-1) was 6.47.

In the case of `COc1cc(C2CC2)nc2c1CCCN2c1ccc2cnc(CNC(=O)c3ccc4c(c3)S(=O)(=O)CCOC4)cc2n1` [Compound 771], the pIC50 (BRM) was 7.98, the “Ratio*” value (BRM) was 16.35 and the pIC50 (BRG-1) was 6.76.

In the case of `COCCN1CCc2ccc(-c3ccc4cnc(CNC(=O)c5ccc6c(c5)S(=O)(=O)CCOC6)cc4n3)nc2C1` [Compound 772], the pIC50 (BRM) was 6.40, the “Ratio*” value (BRM) was 7.26 and the pIC50 (BRG-1) was 5.54.

In the case of `O=C(NCc1cc2nc(N3CCOc4cc(Cl)cc(F)c43)ccc2cn1)c1cc(F)c2c(c1)S(=O)(=O)CCOC2` [Compound 773], the pIC50 (BRM) was 7.41, the “Ratio*” value (BRM) was 30.25 and the pIC50 (BRG-1) was 5.93.

In the case of `COc1ccc2c(c1F)N(c1ccc3cnc(CNC(=O)c4ccc5c(c4)S(=O)(=O)CCOC5)cc3n1)CCO2` [Compound 774], the pIC50 (BRM) was 7.92, the “Ratio*” value (BRM) was 14.44 and the pIC50 (BRG-1) was 6.76.

For `O=C(NCc1cc2nc(N3CCOc4cc(C5CC5)ccc43)ccc2nn1)c1ccc2c(c1)S(=O)(=O)CCOC2` [Compound 775], the pIC50 (BRM) was 7.90, the “Ratio*” value (BRM) was 12.13 and the pIC50 (BRG-1) was 6.82.

With `COc1ccc2c(c1)N(c1ccc3cnc(CNC(=O)c4ccc5c(c4)S(=O)(=O)CCOC5)cc3n1)CCO2` [Compound 776] the pIC50 (BRM) was 8.20, the “Ratio*” value (BRM) was 15.77 and the pIC50 (BRG-1) was 7.00.

In the case of `O=C(NCc1cc2nc(N3CCOc4cc(C(F)F)ncc43)ccc2cn1)c1ccc2c(c1)S(=O)(=O)CCOC2` [Compound 777], the pIC50 (BRM) was 7.13, the “Ratio*” value (BRM) was 13.26 and the pIC50 (BRG-1) was 6.01.

In the case of `C[C@@H]1CN(c2cccc(-c3ccc4cnc(CNC(=O)c5ccc6c(c5)S(=O)(=O)CCC(F)C6)cc4n3)n2)C[C@H](C)O1` (stereo partly drawn) [Compound 779], the pIC50 (BRM) was 8.26, the “Ratio*” value (BRM) was 2.13 and the pIC50 (BRG-1) was 7.93.

With `O=C(NCc1cc2nc(N3CCCc4cnc(C5CC5)nc43)ccc2cn1)c1ccc2c(c1)S(=O)(=O)CCOC2` [Compound 780] the pIC50 (BRM) was 7.54, the “Ratio*” value (BRM) was 17.78 and the pIC50 (BRG-1) was 6.29.

In the case of `O=C(NCc1cc2nc(N3CCOc4cc(F)c(C(F)F)nc43)ccc2cn1)c1ccc2c(c1)S(=O)(=O)CCOC2` [Compound 781], the pIC50 (BRM) was 7.55, the “Ratio*” value (BRM) was 25.53 and the pIC50 (BRG-1) was 6.15.

`CN(c1cnc2c(c1)OCCN2c1ccc2cnc(CNC(=O)c3ccc4c(c3)S(=O)(=O)CCOC4)cc2n1)C1CC1` [Compound 782] was tested, and the pIC50 (BRM) was 8.06, the “Ratio*” value (BRM) was 4.99 and the pIC50 (BRG-1) was 7.36.

In the case of `COc1ncc2c(c1F)N(c1ccc3cnc(CNC(=O)c4ccc5c(c4)S(=O)(=O)CCOC5)cc3n1)CCC2` [Compound 783], the pIC50 (BRM) was 7.51, the “Ratio*” value (BRM) was 14.27 and the pIC50 (BRG-1) was 6.35.

`Cc1c(C2CC2)cnc2c1OCCN2c1ccc2cnc(CNC(=O)c3ccc4c(c3)S(=O)(=O)CCOC4)cc2n1` [Compound 784] was tested, and the pIC50 (BRM) was 7.61, the “Ratio*” value (BRM) was 8.62 and the pIC50 (BRG-1) was 6.67.

`O=C(NCc1cc2nc(N3CCCc4ncc(C5CC5)nc43)ccc2cn1)c1ccc2c(c1)S(=O)(=O)CCOC2` [Compound 785] was tested, and the pIC50 (BRM) was 7.07, the “Ratio*” value (BRM) was 15.49 and the pIC50 (BRG-1) was 5.88.

With `O=C(NCc1cc2cc(N3CCOc4ccc(C5CC5)cc43)ccc2cn1)c1ccc2c(c1)S(=O)(=O)CCOC2` [Compound 787] the pIC50 (BRM) was 7.87, the “Ratio*” value (BRM) was 14.38 and the pIC50 (BRG-1) was 6.71.

With `O=C(NCc1cc2nc(-c3ccc4c(n3)CN(C3CC3)CC4)ccc2cn1)c1ccc2c(c1)S(=O)(=O)CCOC2` [Compound 788] the pIC50 (BRM) was 6.21, the “Ratio*” value (BRM) was 6.69 and the pIC50 (BRG-1) was 5.38.

With `O=C(NCc1cc2cc(N3CCCc4cc(-c5cn[nH]c5)ccc43)ccc2cn1)c1ccc2c(c1)S(=O)(=O)CCOC2` [Compound 789] the pIC50 (BRM) was 8.23, the “Ratio*” value (BRM) was 5.10 and the pIC50 (BRG-1) was 7.52.
